Laboratory results from publication PMC4429288 (The Journal of antibiotics, 2014).
Counter-ions that a name gives are not always drawn.

Legend:
[1] = test system: S. aureus (MRSA, VISA and VRSA strains); experiment: MIC, broth microdilution; format: cell-based, Staphylococcus aureus
[2] = test system: S. epidermidis ATCC 35984; experiment: MIC, broth microdilution; format: cell-based; conditions: Staphylococcus epidermidis, ATCC35984
[3] = test system: S. aureus (MRSA, VISA and VRSA strains); experiment: MBC, plating from MIC wells; format: cell-based, Staphylococcus aureus
[4] = test system: methicillin-resistant Staphylococcus aureus (MRSA); experiment: Single-step resistance selection; format: cell-based; conditions: 4 × MIC; for Single-step frequency of resistance: resistant colonies per inoculum
MRSA NRS123 (USA400) = experiment: Time-kill analysis
[5] = Staphylococcus aureus, ATCC43300|MRSA|VISA|VRSA
[6] = Staphylococcus aureus, MRSA|NRS107|VISA|VRSA
[7] = Staphylococcus aureus, MRSA|NRS119|VISA|VRSA
[8] = Staphylococcus aureus, MRSA|NRS123|USA400|VISA|VRSA
[9] = Staphylococcus aureus, MRSA|NRS194|VISA|VRSA
[10] = Staphylococcus aureus, MRSA|NRS384|USA300|VISA|VRSA
[11] = Staphylococcus aureus, MRSA|NRS385|USA500|VISA|VRSA

Work on CN[C@H](CC(C)C)C(=O)N[C@H]1C(=O)N[C@@H](CC(N)=O)C(=O)N[C@H]2C(=O)N[C@H]3C(=O)N[C@H](C(=O)N[C@H](C(=O)O)c4cc(O)cc(O)c4-c4cc3ccc4O)[C@H](O)c3ccc(c(Cl)c3)Oc3cc2cc(c3O[C@@H]2O[C@H](CO)[C@@H](O)[C@H](O)[C@H]2O[C@H]2C[C@](C)(N)[C@H](O)[C@H](C)O2)Oc2ccc(cc2Cl)[C@H]1O [Vancomycin, vancomycin hydrochloride] yielded an MIC [1, 5] of 0.74 µg/mL, an MIC [1, 6] of 0.74 µg/mL and an MIC [1, 7] of 0.74 µg/mL. For the same molecule, the MIC [1, 8] was 0.37 µg/mL, the MIC [1, 9] was 0.74 µg/mL and the MIC [1, 10] was 0.74 µg/mL. The MIC [1, 11] was 0.74 µg/mL, the MIC [2] was 0.74 µg/mL and the MBC [3, 5] was 0.74 µg/mL. It also gave an MBC ([3]; Staphylococcus aureus, MRSA|NRS1|VISA|VRSA) of 2.97 µg/mL, an MBC ([3]; Staphylococcus aureus, MRSA|NRS19|VISA|VRSA) of 2.97 µg/mL and an MBC ([3]; Staphylococcus aureus, MRSA|NRS37|VISA|VRSA) of 2.97 µg/mL. It also gave an MBC [3, 6] of 1.49 µg/mL, an MBC [3, 7] of 1.49 µg/mL and an MBC [3, 8] of 0.37 µg/mL. The MBC [3, 9] was 0.74 µg/mL, the MBC [3, 10] was 0.74 µg/mL and the MBC [3, 11] was 0.74 µg/mL. The “Single-step frequency of resistance” value ([4]; MRSA NRS119) was >8.47×10^−10, the “Single-step frequency of resistance” value ([4]; MRSA NRS123 (USA400)) was >2.33×10^−10 and the “Single-step frequency of resistance” value ([4]; MRSA NRS384 (USA300)) was 3.03×10^−10. For the same molecule, the “Single-step frequency of resistance” value ([4]; MRSA NRS385 (USA500)) was >3.31×10^−10, the “Time to 3-log10 reduction in CFUml^−1” value (MRSA NRS123 (USA400); 2 × MIC) was ≤ 24 h and the “Time to complete elimination of MRSA” value (MRSA NRS123 (USA400); 2 × MIC) was “not able to eliminate all bacteria completely”. The “Time to complete elimination of MRSA” value (MRSA NRS123 (USA400); 4 × MIC) was 24 h and the “Time to complete elimination of MRSA” value (MRSA NRS123 (USA400); 8 × MIC) was 24 h.

In the case of teicoplanin, the MIC ([1]; MRSA ATCC 43300) was 0.94 µg/mL, the MIC ([1]; MRSA NRS107) was 0.94 µg/mL and the MIC ([1]; MRSA NRS119) was 0.94 µg/mL. The MIC ([1]; MRSA NRS123 (USA400)) was 0.94 µg/mL, the MIC ([1]; MRSA NRS194) was 0.94 µg/mL and the MIC ([1]; MRSA NRS384 (USA300)) was 0.94 µg/mL. The MIC ([1]; MRSA NRS385 (USA500)) was 0.94 µg/mL, the MIC ([1]; VISA NRS1) was 3.76 µg/mL and the MIC ([1]; VISA NRS19) was 0.94 µg/mL. It also gave an MIC ([1]; VISA NRS37) of 7.52 µg/mL, an MIC range ([1]; VISA strains) of 0.94 to 7.52 µg/mL and an MIC ([1]; VRSA VRS1) of 120.30 µg/mL. For the same molecule, the MIC ([1]; VRSA VRS4) was 60.15 µg/mL, the MIC ([1]; VRSA VRS5) was 60.15 µg/mL and the MIC range ([1]; all three VRSA strains) was 60.51 to 120.30 µg/mL. For the same molecule, the MBC ([3]; MRSA ATCC 43300) was 3.76 µg/mL, the MBC ([3]; MRSA NRS107) was 0.94 µg/mL and the MBC ([3]; MRSA NRS119) was 0.94 µg/mL. The MBC ([3]; MRSA NRS123 (USA400)) was 15.04 µg/mL, the MBC ([3]; MRSA NRS194) was 15.04 µg/mL and the MBC ([3]; MRSA NRS384 (USA300)) was 15.04 µg/mL. For the same molecule, the MBC ([3]; MRSA NRS385 (USA500)) was 3.76 µg/mL, the MBC ([3]; VISA NRS1) was 7.52 µg/mL and the MBC ([3]; VISA NRS19) was 0.94 µg/mL. The MBC ([3]; VISA NRS37) was 7.52 µg/mL, the MBC ([3]; VRSA VRS1) was 240.60 µg/mL and the MBC ([3]; VRSA VRS4) was 60.15 µg/mL. For the same molecule, the MBC ([3]; VRSA VRS5) was 60.15 µg/mL, the “MBC relative to MIC” value ([3]; three strains of MRSA (NRS194, USA300, and USA400)) was 16 fold and the “MBC relative to MIC” value ([3]; two additional MRSA strains) was “four”. For the same molecule, the “Single-step frequency of resistance” value ([4]; MRSA NRS107) was 1.91×10^−8, the “Single-step frequency of resistance” value ([4]; MRSA NRS119) was 2.73×10^−7 and the “Single-step frequency of resistance” value ([4]; MRSA NRS123 (USA400)) was 2.21×10^−9. The “Single-step frequency of resistance” value ([4]; MRSA NRS384 (USA300)) was 3.03×10^−9, the “Single-step frequency of resistance” value ([4]; MRSA NRS385 (USA500)) was 1.79×10^−8 and the Mutation frequency range ([4]; five MRSA strains) was 2.73×10^−7 to 3.03×10^−9. The “Time to complete elimination of MRSA” value (MRSA NRS123 (USA400); 2 × MIC) was 24 h, the “Time to complete elimination of MRSA” value (MRSA NRS123 (USA400); 4 × MIC) was 24 h and the “Time to complete elimination of MRSA” value (MRSA NRS123 (USA400); 8 × MIC) was 24 h.
